From US10265298B2, “Method of increasing the bioavailability of silybin” (Macau University of Science and Technology, priority 2017, dated 2019)

How the values were obtained:
Caco-2 cells = assay: Glucuronidation of silybin in Caco-2 cells (LC-MS peak area of silybin glucuronides); type: in vitro ADME, human; conditions: silybin 10 μM, test compound 20 μM co-incubation; for inhibition at 20 µM: Homo sapiens, Caco-2, read-out: inhibition on the glucuronide conjugation of silybin
Description: The analysis of silybin and total concentrations of glucuronides and sulfates was performed on an Agilent HP 1100 LC-MS system (Agilent, CA). A Waters ACQUITY UPLC® BEH C18 Column (1.7 μm, 2.1×50 mm, Waters Corp., Ireland) was used for detection with a C18 Security Guard cartridge (4×2.0 mm i.d., Phenomenex, Torrance, Calif.). Silybin A and silybin B were well separated using optimized gradient elution with methanol (mobile phase B) and 0.1% formic acid in water (mobile phase A) as mobile phase at a flow rate of 0.4 ml/min with a run time of 10 minutes. The gradient employed was as follows (time: mobile phase B percentage): 0 min: 25%, 6 minutes: 40%, 6.5 minutes: 25%.
MS parameters including: capillary voltage, −4000 V; nebulizer pressure, 40 pounds per square inch (psi); drying gas, 9 liters per minute (L/min); drying gas temperature, 325° C.; fragment voltage, 35 volts; dwell time, 200 milliseconds (ms); scan mode, selective ion monitoring (SIM) with [M-H]− for silybin (mass-to-charge ratio (m/z) 481), mono-glucuronide (m/z 657), and NG (m/z 271), respectively. LC-MS data were obtained by Agilent ChemStation Software.
Silybin is primarily metabolized to glucuronide (about 55%) and sulfate (about 28%) conjugates in human plasma after oral administration. To examine whether the co-incubation of flavonoids could affect the conjugation of silybin, the peak area of silybin glucuronides was measured by LC-MS (FIG. 6). Identification of glucuronides in the samples was based on their MS in-source fragmentations (m/z 657).

Caco-2 cell monolayers = assay: Bidirectional transport across Caco-2 cell monolayers; conditions: Ko143 at 0.5 μM (BCRP inhibitor); quinidine at 20 μM (P-gp inhibitor)
Description: (§1) Human colorectal adenocarcinoma-2 (Caco-2) cells was obtained from American Type Culture Collection (Manassas, Va.) and frozen at −80° C. For transport study, cells were cultured at 37° C./5% CO2 in Dulbecco's modified Eagle's medium supplemented with 10% fetal bovine serum, 1% nonessential amino acids, and 1% penicillin-streptomycin. […] The culture medium was changed 24 hours after seeding to remove cell debris and dead cells; after which the medium was changed on alternate days. Monolayers were used for transport assays between 21 and 23 days for Caco-2 cells. Prior to transport study, cell monolayers were certified based on internal criteria on transepithelial electrical resistance (TEER) values.
(§2) Prior to transport study, cell monolayers were certified based on our internal criteria on transepithelial electrical resistance (TEER) values, and only monolayers that met the acceptance criteria (transepithelial electrical resistance >500 Ω·cm^2 for Caco-2 cells and >200 Ω·cm^2 for MDCK cells) were selected for transport studies.
(§3) Bidirectional transport assays in human colorectal adenocarcinoma 2 (Caco-2) and Madin-Darby canine kidney II (MDCK II) was carried out by dosing substrates in assay buffer to either the apical chamber (A-to-B) or the basolateral chamber (B-to-A); cells were then incubated at 37° C. with shaking at 50 rotations per minute (rpm), and 100 μl samples were collected at 30, 60, 90, 120 and 180 minutes from the basolateral chamber to study the drug transport of AP to BL, or apical chamber to study the drug transport of BL to AP. Cell monolayers were then washed twice with ice-cold assay buffer and lysed with methanol on ice for 10 minutes. For inhibition studies, Caco-2 or MDCK II cell monolayers were pre-incubated with an inhibitor in both apical and basolateral chambers for 30 minutes, and bidirectional transport of 10 μM silybin was conducted in the absence (control) or presence of the inhibitor in both chambers. […] For fluorescence intensity detection, samples collected from AP or BL side were immediately detected in 96 well black plate by Microplate ultraviolet-visible spectroscopy (UV/VIS) spectrophotometer (TECAN infinite M200 PRO, Männedorf, Switzerland). In all cases, each determination was performed in triplicate.
(§4) The apparent permeability coefficients (Papp) were calculated as Papp=dQ/dt×1/(C“0”A) where dQ/dt (mM/sec) is the rate of permeation of the drug across the cells, C0 (millimolar (mM)) is the donor compartment concentration at time zero and A (cm^2) is the area of the cell monolayer. C0 is obtained from analysis of the dosing solution at the start experiment. Efflux Ratio (ER)=Papp (B to A)/Papp (A to B), while Papp (B−A) is the Papp value measured in the B to A direction, and Papp (A−B) is the Papp value measured in the A to B direction. 1.5 Preparation of Rat Sandwich-Cultured Hepatocytes

in vitro = in vitro ADME, rat; conditions: male, Sprague Dawley, rat
Description: Sandwich-cultured rat hepatocytes (SCHs) were established according to previously described methods with minor modifications. Primary rat hepatocytes were isolated from male Sprague Dawley® (SD) rats (220-270 g) using a collagenase perfusion as described previously and plated at a density of 7.4×10^5 cells/2 ml/well onto six-well BioCoat plates. Approximately 24 hours later, hepatocytes were overlaid with 2 ml of 0.25 mg/ml BD Matrigel basement membrane matrix in Dulbecco's modified Eagle medium (DMEM) containing 1% volume by volume percentage (v/v) insulin/transferrin/selenium culture supplement, […] dexamethasone, 2 mM L-glutamine, 1% (v/v) minimum essential medium nonessential amino acids, 1% penicillin-streptomycin. Hepatocytes were cultured for 4 days to allow extensive formation of canalicular networks between cells before experimentation and the medium was changed daily.
Sandwich-cultured hepatocytes (SCHs) were pre-incubated in 2 milliliters (ml) of warm Hank's Balanced Salt Solution (HBSS) with or without Ca^2+ at 37° C. for 15 minutes; the tight junctions of the bile canaliculi open temporally after exposure to HBSS without Ca^2+. Subsequently, cells were incubated at 37° C. for 20 minutes with 1.5 ml of standard HBSS containing silybin (10 μM), or MK 571 (50 μM) as a positive control, or baicalein (25, 15.8, 5, 1.58, 0.5, 0.16 μM), or tangeretin (25, 15.8, 5, 1.58, 0.5 μM). After 20 min, cells were washed three times with ice-cold standard HBSS. The cell samples were lysed by sonication in 1 ml of water for 5 seconds with the ultrasonic cell disruption system (SONICS & […], INC., Newtown, Conn., USA). Conjugated silybin and unconjugated (free) silybin were quantified by high-performance liquid chromatography-tandem mass spectrometry (HPLC-MS/MS). Transport function was normalized to the protein content of the hepatocytes which was evaluated by bicinchoninic acid (BCA) protein assay (Pierce Chemical, Rockford, Ill.). The biliary excretion index (BEI; %) and in vitro biliary clearance (Clbiliary; ml/min/kg) were calculated by using B-CLEAR technology (Qualyst, Inc., Research Triangle Park, N.C.) based on the following equations: […]

MRP2 = MRP2 (Homo sapiens, UniProt Q92887); assay: cell-based; conditions: dog, 180 min
MRP2, sequence (Q92887 whole entry): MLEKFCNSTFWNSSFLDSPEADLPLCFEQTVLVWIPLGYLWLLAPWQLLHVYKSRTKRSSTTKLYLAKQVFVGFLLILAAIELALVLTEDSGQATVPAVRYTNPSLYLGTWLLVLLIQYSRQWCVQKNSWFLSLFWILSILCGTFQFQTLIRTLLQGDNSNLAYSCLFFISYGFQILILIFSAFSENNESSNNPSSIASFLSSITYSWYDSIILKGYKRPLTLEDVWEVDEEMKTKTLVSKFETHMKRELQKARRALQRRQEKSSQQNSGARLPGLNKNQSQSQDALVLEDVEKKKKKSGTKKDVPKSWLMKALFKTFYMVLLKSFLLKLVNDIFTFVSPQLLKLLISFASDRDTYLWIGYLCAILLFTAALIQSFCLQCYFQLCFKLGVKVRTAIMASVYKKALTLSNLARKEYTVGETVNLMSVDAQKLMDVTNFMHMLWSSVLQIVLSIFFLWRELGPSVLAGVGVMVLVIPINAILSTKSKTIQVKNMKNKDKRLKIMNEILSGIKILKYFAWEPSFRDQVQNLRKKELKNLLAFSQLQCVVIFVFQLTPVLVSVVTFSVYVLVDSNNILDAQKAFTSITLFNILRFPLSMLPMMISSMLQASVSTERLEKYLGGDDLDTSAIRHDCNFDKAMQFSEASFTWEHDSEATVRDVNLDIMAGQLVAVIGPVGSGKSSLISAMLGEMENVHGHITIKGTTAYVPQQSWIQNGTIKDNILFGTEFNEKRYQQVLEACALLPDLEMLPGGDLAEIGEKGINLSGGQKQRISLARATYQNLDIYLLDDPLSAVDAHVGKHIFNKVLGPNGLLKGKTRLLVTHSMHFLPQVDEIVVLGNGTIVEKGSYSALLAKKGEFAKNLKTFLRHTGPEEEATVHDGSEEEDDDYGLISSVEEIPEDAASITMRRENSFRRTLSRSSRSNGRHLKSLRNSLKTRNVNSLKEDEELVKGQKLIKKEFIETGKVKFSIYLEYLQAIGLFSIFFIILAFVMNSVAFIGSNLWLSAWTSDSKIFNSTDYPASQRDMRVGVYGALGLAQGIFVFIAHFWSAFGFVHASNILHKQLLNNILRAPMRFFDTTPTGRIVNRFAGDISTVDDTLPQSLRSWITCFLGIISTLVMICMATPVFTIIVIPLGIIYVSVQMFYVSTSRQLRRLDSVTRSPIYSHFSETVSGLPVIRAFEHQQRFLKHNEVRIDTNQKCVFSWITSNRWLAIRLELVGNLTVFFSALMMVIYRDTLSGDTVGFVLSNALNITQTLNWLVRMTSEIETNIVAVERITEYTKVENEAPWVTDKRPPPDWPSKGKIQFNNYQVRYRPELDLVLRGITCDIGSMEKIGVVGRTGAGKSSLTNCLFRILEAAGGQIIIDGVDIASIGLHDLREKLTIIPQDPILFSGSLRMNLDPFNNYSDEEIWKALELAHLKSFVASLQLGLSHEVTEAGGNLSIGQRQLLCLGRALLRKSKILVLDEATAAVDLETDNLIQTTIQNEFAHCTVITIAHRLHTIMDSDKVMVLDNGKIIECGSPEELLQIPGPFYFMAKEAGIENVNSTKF
Description: (§5) Parental Madin-Darby canine kidney II (MDCKII), multi-drug resistance gene 1-Madin-Darby canine kidney II (MDR1-MDCKII), breast cancer resistance protein-Madin-Darby canine kidney II (BCRP-MDCKII), and multi-drug resistance protein 2-Madin-Darby canine kidney II (MRP2-MDCKII) cells were kindly provided by the Netherlands Cancer Institute (Amsterdam, Netherlands) and frozen at −80° C. The MDCKII cells were cultured at 37° C./5% CO2 in Dulbecco's modified Eagle's medium supplemented with 10% fetal bovine serum, 1% nonessential amino acids, and 2% penicillin-streptomycin. The cells were seeded on transwell inserts (Corning Inc.) at a density of 2.0×10^5 cells/cm^2 and grown for 4-5 days to form confluent monolayers.
as §3, §4
(§6) (*, P<0.05;**, P<0.01; ***, P<0.001 vs absence of any inhibitor. n=3).
as §6

[1] = Bidirectional transport across Caco-2 cell monolayers; conditions: human, Caco-2
Description: as §1, §2, §3, §4

BCRP = target: T1, BCRP (Homo sapiens, UniProt Q9UNQ0); assay: Inhibition of pheophorbide A (Ph A) efflux in MDCKII-BCRP cell monolayers
T1 sequence (Q9UNQ0 1-655): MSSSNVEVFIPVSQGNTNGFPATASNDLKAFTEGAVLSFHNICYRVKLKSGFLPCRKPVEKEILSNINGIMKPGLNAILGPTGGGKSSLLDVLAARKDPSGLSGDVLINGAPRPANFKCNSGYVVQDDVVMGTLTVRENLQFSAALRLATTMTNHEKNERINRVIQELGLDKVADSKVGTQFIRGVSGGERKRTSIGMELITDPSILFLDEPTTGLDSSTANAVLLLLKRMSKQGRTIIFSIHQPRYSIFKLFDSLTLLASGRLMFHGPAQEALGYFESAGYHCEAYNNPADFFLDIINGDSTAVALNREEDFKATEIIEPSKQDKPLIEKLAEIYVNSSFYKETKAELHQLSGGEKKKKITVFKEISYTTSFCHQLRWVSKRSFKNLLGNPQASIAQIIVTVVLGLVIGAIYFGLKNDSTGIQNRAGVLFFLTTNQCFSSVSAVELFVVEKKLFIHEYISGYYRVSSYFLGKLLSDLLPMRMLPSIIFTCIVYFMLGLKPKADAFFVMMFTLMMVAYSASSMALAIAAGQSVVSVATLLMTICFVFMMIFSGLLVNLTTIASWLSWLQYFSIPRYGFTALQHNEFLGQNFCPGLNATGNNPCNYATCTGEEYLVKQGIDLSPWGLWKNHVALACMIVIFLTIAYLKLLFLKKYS
Description: as §5, §3, §4, §6, §6

Compound	effect on glucuronide metabolites / glucuronide conjugation of silybin (Caco-2 cells)	inhibition at 20 µM (Caco-2 cells) [%]	also measured
O=C(O[C@@H]1Cc2c(O)cc(O)cc2O[C@@H]1c1ccc(O)c(O)c1)c1cc(O)c(O)c(O)c1 [(−)-ECG]	did not significantly inhibit the conjugation	–	–
COc1ccc2c3c([nH]c2c1)[C@H](CC(C)C)N1C(=O)[C@H](CCC(=O)OC(C)(C)C)NC(=O)[C@@H]1C3 [Ko143, (3S,6S,12aS)-1,2,3,4,6,7,12,12a-octahydro-9-methoxy-6-(2-methylpropyl)-1,4-dioxo-pyrazino[1′,2′:1,6]pyrido[3,4-b]indole-3-propanoic acid 1,1-dimethylethyl ester]	–	–	effect of efflux transporter inhibitor on efflux/absorption of silybin (Caco-2 cell monolayers): inhibited the efflux ratio of silybin
CN(C)C(=O)CCSC(SCCC(=O)[O-])c1cccc(/C=C/c2ccc3ccc(Cl)cc3n2)c1.[Na+] (centres unmarked) [MK571, (E)-3-[[[3-[2-(7-chloro-2-quinolinyl)ethenyl]phenyl][[3-(dimethylamino)-3-oxopropyl]thio]methyl]thio]-propanoic acid, sodium salt]	almost undetected	–	inhibition at 20 min, 50 μM (in vitro): 100%; efflux ratio of CDCFDA in the presence of inhibitor (MRP2): 1.11
O=C(O)[C@H]1O[C@@H](Oc2cc3oc(-c4ccccc4)cc(=O)c3c(O)c2O)[C@H](O)[C@@H](O)[C@@H]1O [baicalin]	–	> 50	–
COc1ccc2c(c[n+](C)c3c4cc5c(cc4ccc23)OCO5)c1OC [chelerythrine]	did not significantly inhibit the conjugation	–	–
O=c1cc(-c2ccccc2)oc2cc(O)cc(O)c12 [chrysin]	–	> 50	–
COc1cc(/C=C/C(=O)CC(=O)/C=C/c2ccc(O)c(OC)c2)ccc1O [curcumin]	–	> 50	–
O=C1c2c(O)cc(O)cc2O[C@H](c2cc(O)c(O)c(O)c2)[C@H]1O [dihydromyricetin]	–	> 50	–
COc1ccc(-c2cc(=O)c3c(O)cc(O)cc3o2)cc1O [diosmetin]	almost undetected	–	–
O=c1c(O)c(-c2ccc(O)c(O)c2)oc2cc(O)ccc12 [fisetin]	–	> 50	–
O=c1c(O)c(-c2ccccc2)oc2cc(O)cc(O)c12 [galangin]	almost undetected	–	–
O=c1c(-c2ccc(O)cc2)coc2cc(O)cc(O)c12 [genistein]	–	–	Papp at 180 min [1]: 13 ×10⁻⁶ cm/s
COc1ccc([C@@H]2CC(=O)c3c(O)cc(O[C@@H]4O[C@H](CO[C@@H]5O[C@@H](C)[C@H](O)[C@@H](O)[C@H]5O)[C@@H](O)[C@H](O)[C@H]4O)cc3O2)cc1O [hesperidin]	did not significantly inhibit the conjugation	–	–
COc1cc(-c2oc3cc(O)cc(O)c3c(=O)c2O)ccc1O [isorhamnetin]	–	> 50	–
COc1ccc(-c2oc3cc(O)cc(O)c3c(=O)c2O)cc1 [kaempferide]	–	> 50	–
O=c1c(O)c(-c2ccc(O)cc2)oc2cc(O)cc(O)c12 [kaempferol]	–	> 50	–
O=c1cc(-c2ccc(O)c(O)c2)oc2cc(O)cc(O)c12 [luteolin]	almost undetected	–	–
O=c1c(O)c(-c2ccc(O)cc2O)oc2cc(O)cc(O)c12 [morin]	almost undetected	–	–
O=c1c(O)c(-c2ccc(O)c(O)c2)oc2cc(O)cc(O)c12 [quercetin]	–	> 50	–
Oc1ccc(C=Cc2cc(O)cc(O)c2)cc1 [resveratrol]	almost undetected	–	–
pheophorbide A [Ph A]	–	–	mean efflux ratio of pheophorbide A (Ph A) (BCRP): 2.82
